pKi: −log10 of the molar value. Some results are limits rather than exact numbers.

The first assay has as its target T1, human GlyT1c transporter (Homo sapiens, UniProt P48067).
T1 sequence (P48067 1-706): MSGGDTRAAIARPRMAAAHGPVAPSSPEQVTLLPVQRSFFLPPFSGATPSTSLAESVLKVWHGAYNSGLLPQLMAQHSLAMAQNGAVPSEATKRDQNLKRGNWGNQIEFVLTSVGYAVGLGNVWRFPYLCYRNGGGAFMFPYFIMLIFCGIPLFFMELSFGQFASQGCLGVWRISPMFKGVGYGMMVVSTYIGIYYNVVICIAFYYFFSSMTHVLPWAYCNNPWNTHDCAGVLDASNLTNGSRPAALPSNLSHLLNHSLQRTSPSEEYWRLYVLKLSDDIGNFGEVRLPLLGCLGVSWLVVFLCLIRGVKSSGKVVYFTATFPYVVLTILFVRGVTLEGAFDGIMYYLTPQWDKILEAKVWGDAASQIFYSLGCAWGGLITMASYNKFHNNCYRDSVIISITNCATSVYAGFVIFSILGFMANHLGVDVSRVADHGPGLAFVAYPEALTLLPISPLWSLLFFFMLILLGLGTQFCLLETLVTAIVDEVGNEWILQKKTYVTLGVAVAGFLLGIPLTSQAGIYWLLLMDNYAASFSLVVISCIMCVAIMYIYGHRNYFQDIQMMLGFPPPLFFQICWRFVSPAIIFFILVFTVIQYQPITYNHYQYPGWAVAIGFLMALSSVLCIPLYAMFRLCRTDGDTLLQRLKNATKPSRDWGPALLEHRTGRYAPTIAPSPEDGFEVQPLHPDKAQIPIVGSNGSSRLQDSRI
The assay can be described thus: Radioligand binding assays using recombinant CHO cell membranes expressing human GlyT1. Conditions: Ki, radioligand binding to human GlyT1c transporter-expressing CHO cell membranes.
For the molecule `Cn1cc(S(=O)(=O)N2CC(Cc3cccc(C(F)(F)F)c3)C(C3OCCCO3)C2)nn1` (centres unmarked) [Example 919, 4-({3-(1,3-dioxan-2-yl)-4-[3-(trifluoromethyl)benzyl]pyrrolidin-1-yl}sulfonyl)-1-methyl-1H-1,2,3-triazole], the pKi is ≥ 5.00.

Consider `Cn1cnc(S(=O)(=O)N2C[C@H](NC(c3ccccc3)C(F)(F)F)[C@@H](c3ccc(F)cc3)C2)c1` (stereo partly drawn) [Example 868, (3R,4S)-4-(4-fluorophenyl)-1-[(1-methyl-1H-imidazol-4-yl)sulfonyl]-N-(2,2,2-trifluoro-1-phenylethyl)pyrrolidin-3-amine], for which the pKi was ≥ 5.00.

On to `CCCCCCN[C@H]1CN(S(=O)(=O)c2cn(C)cn2)C[C@@H]1C1OCCCO1` [Example 910, (3R,4S)-4-(1,3-dioxan-2-yl)-N-hexyl-1-[(1-methyl-1H-imidazol-4-yl)sulfonyl]pyrrolidin-3-amine], for which the negative-log Ki (pKi) was ≥ 7.00.

In the case of `C=C(C)C1CCC(C)C(N[C@H]2CN(S(=O)(=O)c3cn(C)cn3)C[C@@H]2c2ccc(F)cc2)C1` (stereo partly drawn) [Example 867, (3R,4S)-4-(4-fluorophenyl)-1-[(1-methyl-1H-imidazol-4-yl)sulfonyl]-N-[2-methyl-5-(prop-1-en-2-yl)cyclohexyl]pyrrolidin-3-amine], the pKi was ≥ 7.00.

For the molecule `CN1CCCCC1C1CN(S(=O)(=O)c2cn(C)cn2)CC1Nc1cccc(OCC(F)(F)F)c1` (centres unmarked) [Example 894, 1-[(1-methyl-1H-imidazol-4-yl)sulfonyl]-4-(1-methylpiperidin-2-yl)-N-[3-(2,2,2-trifluoroethoxy)phenyl]pyrrolidin-3-amine], the pKi is ≥ 8.00.

As to `C[C@@H]1C[C@@H](C)OC([C@H]2CN(S(=O)(=O)c3cn(C)cn3)C[C@@H]2Nc2cccc(OC(F)(F)F)c2)O1` (stereo partly drawn) [Example 921, (3R,4S)-4-[(4R,6R)-4,6-dimethyl-1,3-dioxan-2-yl]-1-[(1-methyl-1H-imidazol-4-yl)sulfonyl]-N-[3-(trifluoromethoxy)phenyl]pyrrolidin-3-amine], the pKi was ≥ 7.00.

Consider `Cn1cnc(S(=O)(=O)N2CC3CCCCC3(NCc3ccc(C(F)(F)F)cc3Cl)C2)c1` (centres unmarked) [Example 869, N-[2-chloro-4-(trifluoromethyl)benzyl]-2-[(1-methyl-1H-imidazol-4-yl)sulfonyl]octahydro-3aH-isoindol-3a-amine], for which the pKi was ≥ 8.00.

For `Cn1cnc(S(=O)(=O)N2C[C@@H](c3ccccc3)[C@](C)(NCc3ccc(C(F)(F)F)cc3Cl)C2)c1` (relative stereo) [Example 356, Trans-N-[2-chloro-4-(trifluoromethyl)benzyl]-3-methyl-1-[(1-methyl-1H-imidazol-4-yl)sulfonyl]-4-phenylpyrrolidin-3-amine], the pKi is ≥ 7.00.

In the case of `Cn1cnc(S(=O)(=O)N2CC(c3ccccc3)C3(COC(=O)N3Cc3ccc(C(F)(F)F)cc3)C2)c1` (stereo not drawn) [Example 407, Trans-7-[(1-methyl-1H-imidazol-4-yl)sulfonyl]-9-phenyl-1-[4-(trifluoromethyl)benzyl]-3-oxa-1,7-diazaspiro[4.4]nonan-2-one], the negative logarithm of the Ki (pKi) is ≥ 5.00.

As to `Cn1cnc(S(=O)(=O)N2C[C@H](Nc3cccc(C(F)(F)F)c3)[C@@H](C3OCCCO3)C2)c1` [Example 915, (3R,4S)-4-(1,3-dioxan-2-yl)-1-[(1-methyl-1H-imidazol-4-yl)sulfonyl]-N-[3-(trifluoromethyl)phenyl]pyrrolidin-3-amine], the pKi was ≥ 8.00.

Take `Cn1cnc(S(=O)(=O)N2CC3CCCN(C(=O)c4ccc(Cl)cc4Cl)C3C2)c1` (centres unmarked) [Example 873, (2,4-dichlorophenyl){6-[(1-methyl-1H-imidazol-4-yl)sulfonyl]octahydro-1H-pyrrolo[3,4-b]pyridin-1-yl}methanone]: the pKi is ≥ 5.00.

For the molecule `Cn1cnc(S(=O)(=O)N2C[C@@H](C(=O)c3cccc(F)c3)[C@H](c3ccc(F)cc3)C2)c1` (relative stereo) [Example 301], the pKi was ≥ 6.00.

Consider `Cn1cnc(S(=O)(=O)N2C[C@H](Nc3cccc(OC(F)(F)F)c3)[C@@H](C3OCC(C)(C)CO3)C2)c1` [Example 900, (3R,4S)-4-(5,5-dimethyl-1,3-dioxan-2-yl)-1-[(1-methyl-1H-imidazol-4-yl)sulfonyl]-N-[3-(trifluoromethoxy)phenyl]pyrrolidin-3-amine], for which the pKi was ≥ 6.00.

In the case of `Cn1cnc(S(=O)(=O)N2C[C@H](Nc3ccc(F)c(OC(F)(F)F)c3)[C@@H](C3OCCCO3)C2)c1` [Example 924, (3R,4S)-4-(1,3-dioxan-2-yl)-N-[4-fluoro-3-(trifluoromethoxy)phenyl]-1-[(1-methyl-1H-imidazol-4-yl)sulfonyl]pyrrolidin-3-amine], the negative logarithm of the Ki (pKi) is ≥ 8.00.

Regarding `Cn1cnc(S(=O)(=O)N2CC(Nc3cccc(OC(F)(F)F)c3)C(N3CCCCC3)C2)c1` (centres unmarked) [Example 913, 1-[(1-methyl-1H-imidazol-4-yl)sulfonyl]-4-(piperidin-1-yl)-N-[3-(trifluoromethoxy)phenyl]pyrrolidin-3-amine], the negative logarithm of the Ki (pKi) is ≥ 8.00.

`Cn1cnc(S(=O)(=O)N2C3CCC2C(c2ccc(F)cc2)C3Nc2ccc(F)c(C(F)(F)F)c2)c1` (centres unmarked) [Example 878, 3-(4-fluorophenyl)-N-[4-fluoro-3-(trifluoromethyl)phenyl]-7-[(1-methyl-1H-imidazol-4-yl)sulfonyl]-7-azabicyclo[2.2.1]heptan-2-amine]: the pKi is ≥ 5.00.

With `Cn1cnc(S(=O)(=O)N2C[C@H](NCc3ccc(C(F)(F)F)cc3Cl)[C@@H](C3OCCCO3)C2)c1` [Example 904, (3R,4S)-N-[2-chloro-4-(trifluoromethyl)benzyl]-4-(1,3-dioxan-2-yl)-1-[(1-methyl-1H-imidazol-4-yl)sulfonyl]pyrrolidin-3-amine], the pKi is ≥ 8.00.

With `Cn1cnc(S(=O)(=O)N2C[C@H](Nc3cccc(OC(F)F)c3)[C@@H](C3OCCCO3)C2)c1` [Example 925, (3R,4S)-N-[3-(difluoromethoxy)phenyl]-4-(1,3-dioxan-2-yl)-1-[(1-methyl-1H-imidazol-4-yl)sulfonyl]pyrrolidin-3-amine], the negative logarithm of the Ki (pKi) is ≥ 8.00.

`Cn1cnc(S(=O)(=O)N2CC3CCCN(C(=O)c4ccc(C(F)(F)F)cc4Cl)C3C2)c1` (centres unmarked) [Example 880, [2-chloro-4-(trifluoromethyl)phenyl]{6-[(1-methyl-1H-imidazol-4-yl)sulfonyl]octahydro-1H-pyrrolo[3,4-b]pyridin-1-yl}methanone]: the pKi is ≥ 6.00.

Consider `Cc1ccc(C(N[C@H]2CN(S(=O)(=O)c3cn(C)cn3)C[C@@H]2c2ccc(F)cc2)C(F)(F)F)cc1` (stereo partly drawn) [Example 876, (3R,4S)-4-(4-fluorophenyl)-1-[(1-methyl-1H-imidazol-4-yl)sulfonyl]-N-[2,2,2-trifluoro-1-(4-methylphenyl)ethyl]pyrrolidin-3-amine], for which the pKi was ≥ 6.00.

The assay is the same for the next values; noted with them: radioligand binding to human GlyT1c transporter-expressing CHO cell membranes.
As for “Trans-N-[4-chloro-3-(trifluoromethoxy)phenyl]-1-[(1-methyl-1H-imidazol-4-yl)sulfonyl]-4-[(3S)-tetrahydro-2H-pyran-3-yl]pyrrolidin-3-amine [Example 793]”, the pKi was ≥ 5.00.

Turning to “4-({(3R,4S)-1-[(1-methyl-1H-imidazol-4-yl)sulfonyl]-4-phenylpyrrolidin-3-yl}amino)-2,3-dihydro-1H-isoindol-1-one [Example 421]”, the negative-log Ki (pKi) was ≥ 5.00.

As to “N-{(3R,4S)-4-(4-fluorophenyl)-1-[(1-methyl-1H-imidazol-4-yl)sulfonyl]pyrrolidin-3-yl}-6-(2-methylpropoxy)pyrimidin-4-amine [Example 718]”, the negative logarithm of the Ki (pKi) was ≥ 7.00.

By pKi is commonly meant −log10 of the Ki, conventionally taken in molar units.

The values above are taken from patent US9650334B2 (AbbVie Deutschland GmbH & Co. KG, priority 2013, dated 2017).
